Test results: ChEMBL document CHEMBL5465560, “Selectivity Literature for EUbOPEN Chemogenomic Library” (2024)

Experiments:
[1] = biological target: RAF proto-oncogene serine/threonine-protein kinase (Homo sapiens) (UniProt P04049); experiment: Selectivity interaction (Millipore kinase profiler) EUB0000124b RAF1; conditions: at 10 µM
[2] = biological target: T1, Receptor-interacting serine/threonine-protein kinase 4 (Homo sapiens) (UniProt P57078); experiment: Selectivity interaction (KinomeScan (DiscoverX)) EUB0000666a RIPK4; conditions: at 10 µM
T1 sequence (whole entry): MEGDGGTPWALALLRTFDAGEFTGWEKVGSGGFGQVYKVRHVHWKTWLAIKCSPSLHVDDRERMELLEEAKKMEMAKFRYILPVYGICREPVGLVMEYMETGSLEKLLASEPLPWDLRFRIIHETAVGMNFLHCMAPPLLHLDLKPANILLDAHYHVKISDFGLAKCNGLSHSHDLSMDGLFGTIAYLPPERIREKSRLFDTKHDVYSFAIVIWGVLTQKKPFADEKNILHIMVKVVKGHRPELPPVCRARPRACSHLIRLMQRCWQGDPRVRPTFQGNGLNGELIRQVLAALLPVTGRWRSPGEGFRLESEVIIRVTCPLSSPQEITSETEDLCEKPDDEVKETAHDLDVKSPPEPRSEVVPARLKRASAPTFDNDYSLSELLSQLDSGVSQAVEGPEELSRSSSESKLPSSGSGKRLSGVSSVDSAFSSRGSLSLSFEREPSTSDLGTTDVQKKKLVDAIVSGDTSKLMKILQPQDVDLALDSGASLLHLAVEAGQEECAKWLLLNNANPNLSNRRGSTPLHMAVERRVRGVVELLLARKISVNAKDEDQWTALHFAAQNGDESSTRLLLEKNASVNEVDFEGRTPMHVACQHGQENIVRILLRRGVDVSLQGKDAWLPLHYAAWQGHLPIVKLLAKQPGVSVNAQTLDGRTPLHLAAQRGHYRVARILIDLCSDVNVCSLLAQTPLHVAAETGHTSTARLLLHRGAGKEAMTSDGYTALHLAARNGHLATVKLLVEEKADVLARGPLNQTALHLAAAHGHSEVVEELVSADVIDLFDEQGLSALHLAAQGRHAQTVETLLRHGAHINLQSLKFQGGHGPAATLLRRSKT

[3] = biological target: Glucocorticoid receptor (Homo sapiens) (UniProt P04150); experiment: Selectivity interaction (Eurofins CEREP Diversity Profile (receptors and ion channels)) EUB0000279b NR3C1; conditions: at 10 µM
Sequence of Glucocorticoid receptor (Homo sapiens) (P04150 whole entry): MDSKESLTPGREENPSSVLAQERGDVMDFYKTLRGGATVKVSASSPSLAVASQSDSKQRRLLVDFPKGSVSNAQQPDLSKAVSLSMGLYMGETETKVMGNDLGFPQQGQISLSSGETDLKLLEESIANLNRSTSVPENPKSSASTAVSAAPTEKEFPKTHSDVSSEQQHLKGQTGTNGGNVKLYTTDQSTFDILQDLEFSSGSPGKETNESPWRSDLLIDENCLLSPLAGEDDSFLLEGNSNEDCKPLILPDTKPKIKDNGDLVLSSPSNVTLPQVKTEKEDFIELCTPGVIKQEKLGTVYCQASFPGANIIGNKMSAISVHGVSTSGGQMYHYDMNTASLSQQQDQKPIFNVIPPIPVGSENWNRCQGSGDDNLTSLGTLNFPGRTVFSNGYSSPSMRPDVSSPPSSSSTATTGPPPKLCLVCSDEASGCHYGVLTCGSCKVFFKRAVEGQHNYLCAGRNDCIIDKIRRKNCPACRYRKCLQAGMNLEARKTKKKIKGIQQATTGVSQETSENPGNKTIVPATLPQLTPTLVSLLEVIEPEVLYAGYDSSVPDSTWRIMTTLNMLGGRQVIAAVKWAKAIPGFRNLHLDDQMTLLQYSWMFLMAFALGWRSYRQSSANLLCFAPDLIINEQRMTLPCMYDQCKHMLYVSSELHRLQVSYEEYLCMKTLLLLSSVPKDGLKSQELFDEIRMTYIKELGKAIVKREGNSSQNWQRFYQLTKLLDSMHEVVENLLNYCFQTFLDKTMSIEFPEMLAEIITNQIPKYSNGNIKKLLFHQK

[4] = biological target: Phosphatidylinositol 4-kinase beta (Homo sapiens, UniProt Q9UBF8); experiment: Selectivity interaction (ActivX KiNativ screen (kinase selectivity in THP-1 cell lysates)) EUB0000639a PI4KB; assay type: subcellular; conditions: lysate, at 0.01 µM
Sequence of Phosphatidylinositol 4-kinase beta (Q9UBF8 2-816 limits assumed): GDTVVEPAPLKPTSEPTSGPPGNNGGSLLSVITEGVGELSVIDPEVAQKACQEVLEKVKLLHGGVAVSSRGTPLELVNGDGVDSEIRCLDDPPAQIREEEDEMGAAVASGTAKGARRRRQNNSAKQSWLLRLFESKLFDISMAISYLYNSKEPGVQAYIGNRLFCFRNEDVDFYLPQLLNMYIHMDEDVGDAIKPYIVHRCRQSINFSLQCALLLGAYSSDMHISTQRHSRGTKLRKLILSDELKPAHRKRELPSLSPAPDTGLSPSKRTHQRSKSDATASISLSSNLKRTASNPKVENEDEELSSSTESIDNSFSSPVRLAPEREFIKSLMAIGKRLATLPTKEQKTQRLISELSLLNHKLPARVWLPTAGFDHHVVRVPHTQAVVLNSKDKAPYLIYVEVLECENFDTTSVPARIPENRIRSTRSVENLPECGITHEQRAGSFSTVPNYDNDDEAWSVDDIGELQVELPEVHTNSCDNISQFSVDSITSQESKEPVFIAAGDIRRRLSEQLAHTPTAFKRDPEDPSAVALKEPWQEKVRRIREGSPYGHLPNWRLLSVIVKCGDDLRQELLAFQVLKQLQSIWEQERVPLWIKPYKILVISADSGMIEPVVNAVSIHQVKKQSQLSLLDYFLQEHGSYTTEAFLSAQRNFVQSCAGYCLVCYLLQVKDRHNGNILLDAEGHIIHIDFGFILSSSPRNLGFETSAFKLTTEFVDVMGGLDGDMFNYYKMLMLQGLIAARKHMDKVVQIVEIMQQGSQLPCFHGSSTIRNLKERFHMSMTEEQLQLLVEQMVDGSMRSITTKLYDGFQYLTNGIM

[5] = biological target: Calcium/calmodulin-dependent protein kinase type 1D (Homo sapiens) (UniProt Q8IU85); experiment: Selectivity interaction (ActivX KiNativ screen (kinase selectivity in THP-1 cell lysates)) EUB0000639a CAMK1D; assay type: subcellular; conditions: lysate, at 0.04 µM
Sequence of Calcium/calmodulin-dependent protein kinase type 1D (Homo sapiens) (Q8IU85 whole entry, looked up): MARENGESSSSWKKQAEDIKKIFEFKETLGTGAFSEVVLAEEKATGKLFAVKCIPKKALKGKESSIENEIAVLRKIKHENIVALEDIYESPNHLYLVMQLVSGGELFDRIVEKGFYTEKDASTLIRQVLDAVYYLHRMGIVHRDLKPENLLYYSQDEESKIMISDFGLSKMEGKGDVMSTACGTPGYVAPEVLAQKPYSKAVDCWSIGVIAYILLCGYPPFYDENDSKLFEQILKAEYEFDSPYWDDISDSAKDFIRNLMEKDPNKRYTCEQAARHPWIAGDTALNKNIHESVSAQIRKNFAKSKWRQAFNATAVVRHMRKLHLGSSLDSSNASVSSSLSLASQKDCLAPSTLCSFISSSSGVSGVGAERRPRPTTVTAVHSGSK

[6] = biological target: T2, Serine/threonine-protein kinase BRSK1 (Homo sapiens) (UniProt Q8TDC3); experiment: Selectivity interaction (KinomeScan (DiscoverX)) EUB0000618a BRSK1; conditions: at 10 µM
T2 sequence (whole entry): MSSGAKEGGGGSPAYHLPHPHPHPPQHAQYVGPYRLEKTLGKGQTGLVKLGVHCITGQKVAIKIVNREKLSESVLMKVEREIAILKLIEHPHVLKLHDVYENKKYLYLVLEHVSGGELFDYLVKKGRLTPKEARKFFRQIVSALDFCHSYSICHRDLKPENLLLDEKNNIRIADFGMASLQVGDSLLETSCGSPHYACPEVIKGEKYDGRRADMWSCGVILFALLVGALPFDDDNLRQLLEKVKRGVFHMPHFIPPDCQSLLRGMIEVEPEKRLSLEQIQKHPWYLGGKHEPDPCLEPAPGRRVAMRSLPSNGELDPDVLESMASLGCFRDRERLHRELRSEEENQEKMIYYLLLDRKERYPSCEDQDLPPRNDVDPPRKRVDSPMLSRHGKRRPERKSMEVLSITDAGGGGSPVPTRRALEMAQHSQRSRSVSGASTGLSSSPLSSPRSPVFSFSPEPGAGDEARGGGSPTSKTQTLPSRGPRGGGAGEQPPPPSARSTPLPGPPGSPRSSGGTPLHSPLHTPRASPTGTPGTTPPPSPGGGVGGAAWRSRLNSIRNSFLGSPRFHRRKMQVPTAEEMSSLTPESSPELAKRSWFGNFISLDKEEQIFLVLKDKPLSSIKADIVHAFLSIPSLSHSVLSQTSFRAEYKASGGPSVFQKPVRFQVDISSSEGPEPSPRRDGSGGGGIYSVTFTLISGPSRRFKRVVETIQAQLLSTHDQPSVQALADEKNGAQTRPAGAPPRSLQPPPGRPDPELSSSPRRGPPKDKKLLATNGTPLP

[7] = biological target: T3, Protein kinase C epsilon type (Homo sapiens) (UniProt Q02156); conditions: at 10 µM
T3 sequence (whole entry): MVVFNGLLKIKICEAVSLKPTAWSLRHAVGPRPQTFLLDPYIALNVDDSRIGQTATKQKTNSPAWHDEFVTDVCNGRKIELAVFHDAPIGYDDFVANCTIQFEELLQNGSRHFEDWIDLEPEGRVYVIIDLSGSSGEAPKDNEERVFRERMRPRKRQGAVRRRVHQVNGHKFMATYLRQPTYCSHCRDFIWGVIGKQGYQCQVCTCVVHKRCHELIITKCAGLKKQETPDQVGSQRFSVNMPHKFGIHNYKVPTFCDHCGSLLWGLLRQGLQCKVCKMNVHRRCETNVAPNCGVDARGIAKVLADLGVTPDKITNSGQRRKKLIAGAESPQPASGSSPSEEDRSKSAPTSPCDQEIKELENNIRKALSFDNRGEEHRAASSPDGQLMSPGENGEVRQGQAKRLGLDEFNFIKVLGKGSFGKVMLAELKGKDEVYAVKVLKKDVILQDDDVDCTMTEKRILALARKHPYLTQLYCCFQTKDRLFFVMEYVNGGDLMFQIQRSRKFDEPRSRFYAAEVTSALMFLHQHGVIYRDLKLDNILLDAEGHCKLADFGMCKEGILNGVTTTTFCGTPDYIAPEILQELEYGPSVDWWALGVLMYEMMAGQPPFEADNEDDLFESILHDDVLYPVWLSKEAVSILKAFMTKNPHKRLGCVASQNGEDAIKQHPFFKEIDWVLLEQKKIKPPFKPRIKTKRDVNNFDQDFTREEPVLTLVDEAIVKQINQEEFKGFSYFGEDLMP

[8] = biological target: Cyclin-dependent kinase 8 (Homo sapiens, UniProt P49336); experiment: Selectivity interaction (ActivX KiNativ screen (ex vivo kinase selectivity in human PBMCs)) EUB0001619a CDK8; assay type: cell-based; conditions: PBMC, at 1 µM
Sequence of Cyclin-dependent kinase 8 (P49336 whole entry): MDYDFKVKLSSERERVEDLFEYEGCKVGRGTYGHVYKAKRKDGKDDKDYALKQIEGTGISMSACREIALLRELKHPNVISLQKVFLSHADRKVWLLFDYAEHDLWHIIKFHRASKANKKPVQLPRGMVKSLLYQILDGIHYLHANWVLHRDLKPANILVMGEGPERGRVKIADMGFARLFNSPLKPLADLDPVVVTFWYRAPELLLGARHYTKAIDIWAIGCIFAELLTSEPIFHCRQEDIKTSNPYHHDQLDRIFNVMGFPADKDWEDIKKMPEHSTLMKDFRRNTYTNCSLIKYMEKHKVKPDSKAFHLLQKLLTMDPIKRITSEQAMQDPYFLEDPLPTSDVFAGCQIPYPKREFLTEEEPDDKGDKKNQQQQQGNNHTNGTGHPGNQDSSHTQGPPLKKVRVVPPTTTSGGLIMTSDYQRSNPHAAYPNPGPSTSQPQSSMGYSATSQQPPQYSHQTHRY

[9] = biological target: Casein kinase II subunit alpha (Homo sapiens, UniProt P68400); experiment: Selectivity interaction (KinomeScan (DiscoverX)) EUB0000607a CSNK2A1; conditions: at 10 µM
Sequence of Casein kinase II subunit alpha (P68400 whole entry, looked up): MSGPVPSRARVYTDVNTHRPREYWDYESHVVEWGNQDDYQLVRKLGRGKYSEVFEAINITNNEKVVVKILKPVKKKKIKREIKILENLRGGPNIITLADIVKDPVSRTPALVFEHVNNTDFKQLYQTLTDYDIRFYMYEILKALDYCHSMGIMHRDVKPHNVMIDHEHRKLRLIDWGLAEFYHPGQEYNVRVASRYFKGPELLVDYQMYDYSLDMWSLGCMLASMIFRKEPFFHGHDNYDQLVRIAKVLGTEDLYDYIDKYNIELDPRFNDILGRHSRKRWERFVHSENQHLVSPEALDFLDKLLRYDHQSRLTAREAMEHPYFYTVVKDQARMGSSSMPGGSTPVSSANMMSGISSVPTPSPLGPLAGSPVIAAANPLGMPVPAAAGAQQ

Sequence of RAF proto-oncogene serine/threonine-protein kinase (Homo sapiens) (P04049 whole entry): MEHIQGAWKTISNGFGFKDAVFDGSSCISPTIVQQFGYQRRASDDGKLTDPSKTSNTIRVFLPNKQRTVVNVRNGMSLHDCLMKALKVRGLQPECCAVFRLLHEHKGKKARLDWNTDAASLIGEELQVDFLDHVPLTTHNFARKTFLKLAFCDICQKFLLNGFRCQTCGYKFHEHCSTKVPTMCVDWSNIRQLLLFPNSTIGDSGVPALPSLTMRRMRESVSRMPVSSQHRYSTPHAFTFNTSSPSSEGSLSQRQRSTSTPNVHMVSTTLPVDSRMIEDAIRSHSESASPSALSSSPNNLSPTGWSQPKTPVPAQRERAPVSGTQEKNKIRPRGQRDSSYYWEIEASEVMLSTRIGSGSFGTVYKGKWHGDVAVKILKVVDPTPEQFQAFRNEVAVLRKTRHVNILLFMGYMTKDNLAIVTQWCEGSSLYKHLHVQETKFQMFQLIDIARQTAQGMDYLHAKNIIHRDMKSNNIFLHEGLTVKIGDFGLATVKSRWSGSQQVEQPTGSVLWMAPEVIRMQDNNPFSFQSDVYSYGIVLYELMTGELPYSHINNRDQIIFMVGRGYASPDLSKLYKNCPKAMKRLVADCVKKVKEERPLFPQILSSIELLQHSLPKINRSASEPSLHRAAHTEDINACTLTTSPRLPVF

`CC(=O)Nc1cccc(-n2c(=O)n(C3CC3)c(=O)c3c(Nc4ccc(I)cc4F)n(C)c(=O)c(C)c32)c1` showed a % of control [1] of 108%.

For `O=C(NOC[C@H](O)CO)c1ccc(F)c(F)c1Nc1ccc(I)cc1F`, the % of control [2] was 100%.

For `CC(=O)c1cc(-c2ccccc2OCC2CC2)c2ncccn12`, the % of control [3] was 94%.

For `CC[C@@H]1[C@H](F)C(=O)N[C@@H]1COc1nccc2cc(C(N)=O)c(OC)cc12` [ZIMLOVISERTIB], the % of inhibition [4] was 1.7% and the % of inhibition [5] was -15.2%.

In the case of `O[C@H]1CC[C@H](Nc2ncc3nc(Nc4c(F)cc(F)cc4F)n([C@H]4CCOC4)c3n2)CC1`, the % of control [6] is reported as 86%.

Work on `Cc1cc([C@@H](C)Nc2ccccc2C(=O)O)c2nc(N3CCOCC3)cc(=O)n2c1` [AZD-6482] yielded a % of control [7] of 100%.

For `N#Cc1cccc(-c2c[nH]c3ncnc(N4CCOCC4)c23)c1`, the % of inhibition [8] was 36%.

`CNC(=O)Nc1ccc(-c2nc(N3CC4CCC(C3)O4)c3cnn(C4CCC5(CC4)OCCO5)c3n2)cc1` showed a % of control [9] of 80%.
